Assay results from patent US8658424B2, “Myelinating oligodendrocyte precursor populations” (Wisconsin Alumni Research Foundation, priority 2007, dated 2014).
Entries after “also recorded” stand apart in the source; their conditions may differ.

Tests used:
Type in all cases: cell-based, human
[1] = test system: hESC-derived Olig2 progenitors; experiment: Differentiation of Olig2 progenitors to OPCs in glial differentiation medium (marker immunostaining); details: for timing of OPC differentiation (PDGFRα, NG2, Sox10): added to Olig2/Nkx2.2 progenitors in glial differentiation medium; for PDGFRα+ OPCs (in words): treated between days 24 and 35, later OPC differentiation; for OLIG2/PDGFRa double positive OPCs: day 100, treatment from Olig2 induction
Procedure: Olig2-expressing progenitors usually appeared around day 24 (Li et al., supra). […] FGF2 (R&D; 10 ng/ml) and/or EGF (Sigma; 10 ng/ml) was added to examine their effect on motor neuron differentiation and progenitor proliferation.
From the 5th week of differentiation, FGF2 was replaced with a cocktail of cytokines consisting of PDGFAA, IGF1 and NT3 (all at 10 ng/ml). Du Z, et al., “Induced expression of Olig2 is sufficient for oligodendrocyte specification but not for motoneuron specification and astrocyte repression,” Mol. Cellular Neurosci. […] SHH or purmorphamine was removed around 10 weeks when PDGFRα+ OPCs appeared. The cultures were fed every other day and the progenitor clusters were broken into smaller pieces with polished glass Pasteur pipette every week.
(§1) Immuno-fluorescent staining on coverslip cultures and free-floating brain sections was described previously. […] Specificity of the antibodies was first tested in embryonic brain and spinal cord tissues. Li et al., supra; and Pankratz et al., supra. Negative controls without primary and secondary antibody were performed in all experiments to monitor non-specific staining. The stained samples were visualized with a Nikon TE600 fluorescent scope equipped with a SPOT camera and software (Diagnostic Instruments; Sterling Heights, Mich.), as well as a Nikon C1 laser scanning confocal microscope.
(§2) At least three coverslips were counted for every group. The experiments were repeated three times with different batches of cells.

[2] = test system: hESC-derived Olig2 progenitors; experiment: Olig2/Nkx2.2 co-expression in Olig2 progenitors (immunostaining); details: for cells expressing Olig2 and/or Nkx2.2: treated day 24 to 35, examined day 35; for OLIG2+/NKX2.2+ population: gliogenic progenitors treated day 35 to 50 (purmorphamine 1 uM, cyclopamine 5 μM), examined day 50
Source text: (§3) Olig2-expressing progenitors usually appeared around day 24 (Li et al., supra). The culture was then switched to a glial differentiation medium (modified Bottenstein-Sato medium; see, Bottenstein J, et al., “The growth of cells in serum-free hormone-supplemented media,” Methods Enzymol. 58:94-109 (1979); and Bottenstein J, et al., “Selective survival of neurons from chick embryo sensory ganglionic dissociates utilizing serum-free supplemented medium,” Exp. Cell Res. 125:183-190 (1980)) consisting of DMEM, N1 supplement (Sigma; St. Louis, Mo.), T3 (Sigma); 60 ng/ml), biotin (Sigma; 100 ng/ml) and cAMP (Sigma; 1 uM). FGF2 (R&D; 10 ng/ml) and/or EGF (Sigma; 10 ng/ml) was added to examine their effect on motor neuron differentiation and progenitor proliferation.
(§4) Immuno-fluorescent staining on coverslip cultures and free-floating brain sections was described previously. Zhang et al. (2001), supra; Pankratz et al., supra. The following primary antibodies were used in the present study: anti-Olig2 (goat IgG, 1:500, sc-19969, Santa Cruz Biotechnology; Santa Cruz, Calif.), anti-βIII-tubulin (TuJ1, mlgG 1:5000, Sigma), anti-GFAP (mlgG 1:5000, Chemicon), anti-NG2 (mlgG 1:400, BD Pharmingen), anti-HB9 (mlgG 1:50, DSHB, Iowa City, Iowa), anti-PDGFRα (rat IgG 1:1000, gift from Dr. Stallcup WILLIAM STALLCUP, Burnham Institute for Medical Research, burnham.org/default.asp?contentID=203 on the World Wide Web) (Nishiyama A, et al., “Colocalization of NG2 proteoglycan and PDGF alpha-receptor on O2A progenitor cells in the developing rat brain,” J. Neurosci. Res. 43:299-314 (1996)), anti-O4 (1:50, mouse IgM, Chemincon MAB345), MBP (1:500, rabbit IgG, Chemicon), anti-human nuclei (1:200, mouse IgG, Chemicon). Specificity of the antibodies was first tested in embryonic brain and spinal cord tissues. Li et al., supra; and Pankratz et al., supra. Negative controls without primary and secondary antibody were performed in all experiments to monitor non-specific staining. The stained samples were visualized with a Nikon TE600 fluorescent scope equipped with a SPOT camera and software (Diagnostic Instruments; Sterling Heights, Mich.), as well as a Nikon C1 laser scanning confocal microscope.
(§5) For quantification of stained cell populations, optical fields were randomly selected with fixed ROI (region of interest) frame using cell counter plugin of ImageJ (Abramoff M, et al., “Image Processing with ImageJ,” Biophoton. Int. 11:36-42 (2004)) from independent coverslips of the same group. At least three coverslips were counted for every group. The experiments were repeated three times with different batches of cells. Statistical analyses were performed using ANOVA with R (R_Development_Core_Team, 2007).
Continued SHH signaling was required for maintaining gliogenic Olig2 progenitors. Gliogenic Olig2 progenitor cultures (day 35) were grown in the presence or absence of purmorphamine (1 uM), or the presence of cyclopamine (5 μM) for 2 weeks. […] Thus, SHH signaling was continuously needed to maintain the Olig2 progenitors, even though exogenous SHH is now not necessary.

[3] = test system: hESC-derived Olig2 progenitors; experiment: Motor neuron differentiation of Olig2 progenitors (HB9 and Olig2 immunostaining); details: for HB9 expression: day 24 to 35, combined with purmorphamine, FGF2 or EGF 10 ng/ml; for cells expressing HB9: day 35, cultures with purmorphamine from day 24, with or without FGF2 10 ng/ml
Source text: as §3, §4, §5
FGF2 (10 ng/ml) was applied to the culture alongside purmorphamine at day 24 (following the appearance of Olig2, but before the differentiation of HB9+ motor neurons). […] Li et al., supra; and Li X & Zhang S, “In vitro differentiation of neural precursors from human embryonic stem cells,” Methods Mol. Biol. 331:169-177 (2006). […] Accordingly, a much larger population (55%) of Olig2 cells was present when FGF2 was present early on. RT-PCR analyses confirmed that Ngn2 and HB9 expression was repressed. Cultures with FGF2 alone (without the presence of SHH or purmorphamine) had few, if any, HB9+ motor neurons or Olig2-expressing progenitors (see FIGS. 4B, C).

[4] = test system: hESC-derived Olig2 progenitors; experiment: Progenitor proliferation (Ki67 positive cells); details: 10 ng/ml, day 24 to 35
Source text: as §3
To determine pro-proliferation effects of FGF2, we used another mitogen, EGF, as a control. […] Thus, FGF2 appeared to increase the Olig2+ cells by preventing the differentiation of Olig2 progenitors to motor neurons.

[5] = test system: hESC-derived Olig2 progenitors; experiment: RT-PCR gene expression in progenitor cultures
[6] = test system: hESC-derived Olig2 progenitors; experiment: FACS analysis of OLIG2+ population; details: day 50, with FGF2 versus without FGF2
[7] = test system: hESC-derived Olig2 progenitors; experiment: Differentiation of Olig2 progenitors to OPCs in glial differentiation medium (marker immunostaining); details: progenitors cultured in the presence of FGF2 throughout; 13-14 weeks
[8] = test system: hESC-derived neuroepithelial cells; experiment: Olig2 induction from hESC-derived neuroepithelial cells (immunostaining); details: for Olig2-expressing progenitors: treatment during Olig2 induction, SHH 100 ng/ml, purmorphamine 1 μM, day 35
Procedure: hESCs (line H1 and H9; WiCell Research Institute; Madison, Wis.) were cultured on irradiated mouse embryonic fibroblasts (MEF) in a 6-well plate. […] Differentiated colonies were marked and removed physically with a pipette tip and the stem cell state was periodically monitored by expression of Oct4 and SSEA4.
hESCs were then differentiated to primitive neuroepithelial cells in an adherent colony culture for 10 days in a neural induction medium consisting of DMEM/F12, N2 supplement and non-essential amino acids, as detailed elsewhere. […] Chem. Soc. […] The neuroepithelial colonies were gently blown off the surface by a pipette and grown as floating clusters in suspension in the same medium.
as §1, §2

**Q.** Which results are given for FGF2: Fibroblast Growth Factor 2 (R&D)?
**A.** total cells generated ([1]; FGF2 with purmorphamine days 24-35 versus purmorphamine alone): substantially more total cells; timing of OPC differentiation (PDGFRα, NG2, Sox10) [1]: did not speed up the differentiation of OPCs; PDGFRα+ OPCs (in words) [1]: similar; Nkx2.2 progenitors ([2]; FGF2 continued from day 35, 7th week): did not appear to change significantly; Olig2/Nkx2.2 double positive cells ([2]; FGF2 continued from day 35, examined day 50 (7th week)): decreased; also recorded: few double positive cells; population of Olig2 cells ([3]; FGF2 10 ng/ml with purmorphamine from day 24, day 35): 55%; HB9+ motor neurons or Olig2-expressing progenitors ([3]; FGF2 alone, without SHH or purmorphamine): few, if any; HB9-expressing cells ([3]; FGF2 removed at day 35 and RA added back, one to two weeks later): hardly any; HB9 expression [3]: blocks HB9 expression; also recorded: nearly completely blocked HB9 expression; cells expressing HB9 [3]: less than 5%; increase of OLIG2+ cells ([3]; with presence of Pur, 12 days from day 24): about 50%; proportion of Ki67 positive cells [4]: does not selectively alter; Ngn2 and HB9 expression (RT-PCR) ([5]; FGF2 10 ng/ml with purmorphamine, day 24 to 35): repressed; expression of NFIA (RT-PCR) ([5]; FGF2 from day 35): promoted the expression of NFIA; expression of Olig2 (RT-PCR) ([5]; FGF2 from day 35 in presence of purmorphamine): compromises the effect of purmorphamine to maintain expression of Olig2; SHH transcript (quantitative RT-PCR) ([5]; day 50, FGF2 from day 35): decreases SHH by half; transcription of GLI2 and GLI3 (quantitative RT-PCR) ([5]; day 50, FGF2 from day 35): increases; decrease in the OLIG2+ population (FACS) [6]: 10%; GFAP+ astrocytes [7]: 35%; PDGFRa+ OPCs [7]: 4%; βIII tubulin+ neurons [7]: 53%

**Q.** For sonic hedgehog [SHH], which “onset of Olig2 expression” value ([8]; one week following SHH treatment) is on record?
**A.** ~23 day of differentiation

**Q.** And the Olig2-expressing progenitors [8]?
**A.** present

**Q.** What about the “timing of OPC differentiation (PDGFRα, NG2, Sox10)” value [1] of the same molecule?
**A.** did not speed up the differentiation of OPCs

**Q.** What about the “OLIG2/PDGFRa double positive OPCs” value [1] of the same molecule?
**A.** present

**Q.** What about the “cells expressing Olig2 and/or Nkx2.2” value [2] of the same molecule?
**A.** co-express; also recorded: sustained Olig2 progenitor population

**Q.** What does the source list for `CC1=C2C[C@H]3[C@@H](CC=C4C[C@@H](O)CC[C@@]43C)[C@@H]2CC[C@]12O[C@@H]1C[C@H](C)CN[C@H]1[C@H]2C` [cyclopamine]?
**A.** Olig2-expressing progenitors [8]: rarely; also recorded: blocked Olig2 transcription; also recorded: near absence of Olig2 cells; OLIG2/PDGFRa double positive OPCs [1]: rarely; also recorded: lack of OPCs; PDGFRα+ OPCs (in words) [1]: few OPCs were present; OLIG2+/NKX2.2+ population [2]: not and few cells expressing Olig2 and/or Nkx2.2; cells expressing Olig2 and/or Nkx2.2 [2]: near complete lack of cells expressing Olig2 and/or Nkx2.2

**Q.** What does the source list for “EGF: mitogen used as a control for FGF2 (Sigma)”?
**A.** timing of OPC differentiation (PDGFRα, NG2, Sox10) [1]: did not speed up the differentiation of OPCs; proportion of Olig2 positive cells ([3]; EGF 10 ng/ml, day 24 to 35): did not increase; HB9 expression [3]: moderately decreases; proportion of Ki67 positive cells [4]: does not selectively alter; also recorded: did not increase

**Q.** With `c1ccc2c(Oc3nc(Nc4ccc(N5CCOCC5)cc4)c4ncn(C5CCCCC5)c4n3)cccc2c1` [purmorphamine] as the molecule, how does the “concentration that produced the highest proportion of Olig2 progenitors” value [8] read?
**A.** 1 µM

**Q.** What about the “induction of Olig2 compared with SHH” value ([8]; purmorphamine 1 uM replacing SHH, p<0.0001) of the same molecule?
**A.** earlier and more potent induction of Olig2

**Q.** What about the “earlier induction of Olig2 expression than SHH” value ([8]; purmorphamine versus SHH) of the same molecule?
**A.** 4 to 5 days

**Q.** What about the Olig2-expressing progenitors [8] of the same molecule?
**A.** present

**Q.** What about the “timing of OPC differentiation (PDGFRα, NG2, Sox10)” value [1] of the same molecule?
**A.** did not speed up the differentiation of OPCs

**Q.** What about the “OLIG2/PDGFRa double positive OPCs” value [1] of the same molecule?
**A.** present

**Q.** And the “PDGFRα+ OPCs” value ([1]; treated day 35 to 50, examined day 100)?
**A.** appear

**Q.** And the “OLIG2+/NKX2.2+ population” value [2]?
**A.** present

**Q.** What about the “more Olig2/Nkx2.2 double positive cells” value ([2]; purmorphamine 1 uM day 35 to 50, day 50, printed comparator: cultures with cyclopamine) of the same molecule?
**A.** about 40%

**Q.** What about the “cells expressing Olig2 and/or Nkx2.2” value [2] of the same molecule?
**A.** co-express; also recorded: sustained Olig2 progenitor population

**Q.** What about the “cells expressing HB9” value [3] of the same molecule?
**A.** 40-50%

B1: Noggin: a BMP antagonist known to promote OPC differentiation (protein, UniProt Q13253 28-232, looked up)
Noggin: QHYLHIRPAPSDNLPLVDLIEHPDPIFDPKEKDLNETLLRSLLGGHYDPGFMATSPPEDRPGGGGGAAGGAEDLAELDQLLRQRPSGAMPSEIKGLEFSEGLAQGKKQRLSKKLRRKLQMWLWSQTFCPVLYAWNDLGSRFWPRYVKVGSCFSKRSCSVPEGMVCKPSKSVHLTVLRWRCQRRGGQRCGWIPIQYPIISECKCSC
**Q.** With B1 as the molecule, how does the “timing of OPC differentiation” value ([1]; Noggin 100 ng/ml at day 35 together with SHH 100 ng/ml) read?
**A.** did not result in earlier differentiation of OPCs
